Test results from patent US12018016B2, “Aryl sulfonyl (hydroxy) piperidines as CCR6 inhibitors” (CHEMOCENTRYX, INC., priority 2021, dated 2024).

biological target: T1, human CCR6 (Homo sapiens, UniProt P51684); test: Migration assay (chemotaxis, ChemoTX); assay type: cell-based; details: hCCR6-transfected Ba/F3 cells in human serum, migration to recombinant human CCL20 10 nM, 37° C. 45 minutes; read-out: Potency (IC50 value in the migration assay)
T1 construct: expressed in transfected cells; host or cells: Ba/F3 cells (mouse pro-B line)
T1 sequence (P51684 1-374): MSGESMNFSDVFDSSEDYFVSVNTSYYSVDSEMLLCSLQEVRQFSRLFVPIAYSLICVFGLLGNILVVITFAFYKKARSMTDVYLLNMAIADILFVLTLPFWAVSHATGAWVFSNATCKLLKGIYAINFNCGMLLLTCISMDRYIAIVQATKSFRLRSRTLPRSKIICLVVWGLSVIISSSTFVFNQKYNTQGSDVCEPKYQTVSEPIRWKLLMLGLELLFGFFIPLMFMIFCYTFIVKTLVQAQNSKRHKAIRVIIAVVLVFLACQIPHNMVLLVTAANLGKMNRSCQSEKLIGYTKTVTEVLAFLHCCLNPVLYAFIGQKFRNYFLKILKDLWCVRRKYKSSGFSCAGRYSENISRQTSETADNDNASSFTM
Procedure, shortened: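 Ba/F3 cells transfected with human CCR6 and butyrate-primed for 24 h were suspended at 4 million/ml in human serum with compound, serially diluted from a 1 μM final top concentration. Cells migrated through a 5-μm polycarbonate membrane toward 10 nM human CCL20 for 45 min at 37 °C. Migrated cells were quantified by CyQUANT fluorescence.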

Compound | IC50 [nM]
COc1c(-c2ccc(S(=O)(=O)N3CC[C@@H](Nc4ccc(C(F)(F)F)cn4)[C@@H](O)C3)cc2)ccnc1C(N)=O [Compound 182] | < 1
Cc1cc(-c2ccc(S(=O)(=O)N3CC[C@@H](Nc4ccc(C(F)(F)F)cn4)[C@@H](O)C3)cc2)cc2c1CN(C(=O)N(C)C)C2 [Compound 80, 6-(4-(((3S,4R)-3-hydroxy-4-((5-(trifluoromethyl)pyridin-2-yl)amino)piperidin-1-yl)sulfonyl)phenyl)-N,N,4-trimethylisoindoline-2-carboxamide] | < 1
CN(C)C1CCN(c2cc(-c3ccc(S(=O)(=O)N4CC[C@@H](Nc5ccc(C(F)(F)F)cn5)[C@@H](O)C4)cc3)ccn2)CC1 [Compound 143] | 1 to 10
O=S(=O)(c1ccc(-c2ccc(NC3CCC3)nc2)cc1)N1CC[C@@H](Nc2ccc(C(F)(F)F)cn2)[C@@H](O)C1 [Compound 103] | 1 to 10
O=C1C[C@H](Nc2ccc(-c3ccc(S(=O)(=O)N4CC[C@@H](Nc5ccc(C(F)(F)F)cn5)[C@@H](O)C4)cc3)cn2)CN1 [Compound 167] | < 1
CN1CCN(c2ccc(-c3ccc(S(=O)(=O)N4CC[C@@H](Nc5ccc(C(F)(F)F)cn5)[C@@H](O)C4)cc3)cn2)CC1 [Compound 115] | < 1
O=S(=O)(c1ccc(-c2ccnc(-c3nnco3)c2)cc1)N1CC[C@@H](Nc2ccc(C(F)(F)F)cn2)[C@@H](O)C1 [Compound 68, (3S,4R)-1-((4-(2-(1,3,4-oxadiazol-2-yl)pyridin-4-yl)phenyl)sulfonyl)-4-((5-(trifluoromethyl)pyridin-2-yl)amino)piperidin-3-ol] | < 1
O=S(=O)(c1ccc(-c2ccnc(N3CCNCC3)c2)cc1)N1CC[C@@H](Nc2ccc(C(F)(F)F)cn2)[C@@H](O)C1 [Compound 158] | 1 to 10
NC(=O)c1cc(-c2ccc(S(=O)(=O)N3CC[C@@H](Nc4ncc(C(F)(F)F)cn4)[C@@H](O)C3)cc2)ccn1 [Compound 86, 4-(4-(((3S,4R)-3-hydroxy-4-((5-(trifluoromethyl)pyrimidin-2-yl)amino)piperidin-1-yl)sulfonyl)phenyl)picolinamide] | 10 to 1000
O=S(=O)(c1ccc(-c2cccnc2)cc1)N1CC[C@@H](Nc2ccc(C(F)(F)F)cn2)[C@@H](O)C1 [Compound 162] | < 1
COc1nccc(-c2ccc(S(=O)(=O)N3CC[C@@H](Nc4ccc(C(F)(F)F)cn4)[C@@H](O)C3)cc2)c1OC [Compound 150] | < 1
NC(=O)c1cc(-c2ccc(S(=O)(=O)N3CC[C@@H](Nc4ccc(Cl)cn4)[C@@H](O)C3)cc2)ccn1 [Compound 87] | < 1
O=C1NCC[C@H]1Nc1ccc(-c2ccc(S(=O)(=O)N3CC[C@@H](Nc4ccc(C(F)(F)F)cn4)[C@@H](O)C3)cc2)cn1 [Compound 169] | < 1
O=S(=O)(c1ccc(-c2ccc(N3CC(O)C3)nc2)cc1)N1CC[C@@H](Nc2ccc(C(F)(F)F)cn2)[C@@H](O)C1 [Compound 174] | < 1
CN1CCN(c2cncc(-c3ccc(S(=O)(=O)N4CC[C@@H](Nc5ccc(C(F)(F)F)cn5)[C@@H](O)C4)cc3)c2)CC1 [Compound 108] | < 1
O=C1Nc2ncc(-c3ccc(S(=O)(=O)N4CC[C@@H](Nc5ccc(C(F)(F)F)cn5)[C@@H](O)C4)cc3)cc2C12CCC2 [Compound 159] | < 1
CC(C)(O)C1CN(c2ccc(-c3ccc(S(=O)(=O)N4CC[C@@H](Nc5ccc(C(F)(F)F)cn5)[C@@H](O)C4)cc3)cn2)C1 [Compound 92] | < 1
O=S(=O)(c1ccc(-c2ccnc(N3CCOCC3)c2)cc1)N1CC[C@@H](Nc2ccc(C(F)(F)F)cn2)[C@@H](O)C1 [Compound 146] | < 1
CN1CC(N(C)c2ccc(-c3ccc(S(=O)(=O)N4CC[C@@H](Nc5ccc(C(F)(F)F)cn5)[C@@H](O)C4)cc3)cn2)C1 [Compound 98] | 1 to 10
O=S(=O)(c1ccc(-c2ccnc(N3CC4(CNC4)C3)c2)cc1)N1CC[C@@H](Nc2ccc(C(F)(F)F)cn2)[C@@H](O)C1 [Compound 141] | 1 to 10

Further lines, results first:

IC50 [nM] | Compound
1 to 10 | Cc1nc2[nH]ccc2cc1-c1ccc(S(=O)(=O)N2CC[C@@H](Nc3ccc(C(F)(F)F)cn3)[C@@H](O)C2)cc1 [Example 17, (3S,4R)-1-((4-(6-methyl-1H-pyrrolo[2,3-b]pyridin-5-yl)phenyl)sulfonyl)-4-((5-(trifluoromethyl)pyridin-2-yl)amino)piperidin-3-ol]
< 1 | O=C1NCc2cc(-c3ccc(S(=O)(=O)N4CC[C@@H](Nc5ccc(C(F)(F)F)cn5)[C@@H](O)C4)cc3)ccc2N1 [Example 14, 6-(4-(((3S,4R)-3-hydroxy-4-((5-(trifluoromethyl)pyridin-2-yl)amino)piperidin-1-yl)sulfonyl)phenyl)-3,4-dihydroquinazolin-2(1H)-one]
10 to 1000 | O=S(=O)(c1ccc(-c2nnc(N3CCOCC3)o2)cc1)N1CC[C@@H](Nc2ccc(C(F)(F)F)cn2)[C@@H](O)C1 [Compound 194]
1 to 10 | Cc1cc2[nH]ncc2cc1-c1ccc(S(=O)(=O)N2CC[C@@H](Nc3ccc(C(F)(F)F)cn3)[C@@H](O)C2)cc1 [Example 25, (3S,4R)-1-((4-(6-methyl-1H-indazol-5-yl)phenyl)sulfonyl)-4-((5-(trifluoromethyl)pyridin-2-yl)amino)piperidin-3-ol]
< 1 | N#Cc1ccc(N[C@@H]2CCN(S(=O)(=O)c3ccc(-c4ccnc(C(N)=O)c4)cc3)C[C@@H]2O)nc1 [Example 37, 4-(4-(((3S,4R)-4-((5-cyanopyridin-2-yl)amino)-3-hydroxypiperidin-1-yl)sulfonyl)phenyl)picolinamide]
< 1 | Nc1n[nH]c2ccc(-c3ccc(S(=O)(=O)N4CC[C@@H](Nc5ccc(C(F)(F)F)cn5)[C@@H](O)C4)cc3)cc12 [Example 1, (3S,4R)-1-((4-(3-amino-1H-indazol-5-yl)phenyl)sulfonyl)-4-((5-(trifluoromethyl)pyridin-2-yl)amino)piperidin-3-ol]
< 1 | O=C1Cc2ccc(-c3ccc(S(=O)(=O)N4CC[C@@H](Nc5ccc(C(F)(F)F)cn5)[C@@H](O)C4)cc3)cc2N1 [Example 9, 6-(4-(((3S,4R)-3-hydroxy-4-((5-(trifluoromethyl)pyridin-2-yl)amino)piperidin-1-yl)sulfonyl)phenyl)indolin-2-one]
< 1 | NC(=O)c1cc(-c2ccc(S(=O)(=O)N3CC[C@@H](Nc4ccc(C(F)(F)F)cn4)[C@@H](O)C3)cc2)ccn1 [Example 31, 4-(4-(((3S,4R)-3-hydroxy-4-((5-(trifluoromethyl)pyridin-2-yl)amino)piperidin-1-yl)sulfonyl)phenyl)picolinamide]
< 1 | Cc1c(C(N)=O)cncc1-c1ccc(S(=O)(=O)N2CC[C@@H](Nc3ccc(C(F)(F)F)cn3)[C@@H](O)C2)cc1 [Compound 184]
< 1 | Cn1nc(N)c2cc(-c3ccc(S(=O)(=O)N4CC[C@@H](Nc5ccc(C(F)(F)F)cn5)[C@@H](O)C4)cc3)ccc21 [Example 49, (3S,4R)-1-((4-(3-amino-1-methyl-1H-indazol-5-yl)phenyl)sulfonyl)-4-((5-(trifluoromethyl)pyridin-2-yl)amino)piperidin-3-ol]
< 1 | NC(=O)c1cc(-c2ccc(S(=O)(=O)N3CC[C@@H](Nc4ccc(C(F)(F)F)cn4)[C@@H](O)C3)cc2)cnc1N [Example 53, 2-Amino-5-(4-(((3S,4R)-3-hydroxy-4-((5-(trifluoromethyl)pyridin-2-yl)amino)piperidin-1-yl)sulfonyl)phenyl)nicotinamide]
